Experimental data as given in PubChem BioAssay (NCI).
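Here, GI50 denotes the concentration required for 50% inhibition of growth. TGI marks complete inhibition of growth.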

How the values were obtained:
Assay in all cases: NCI-60 cell line screen, 384-well format
[1] = tested on: T-47D breast
[2] = tested on: MOLT-4 leukemia
[3] = tested on: HOP-92 NSCLC
[4] = tested on: SW-620 colon
[5] = tested on: SK-MEL-5 melanoma
[6] = tested on: NCI-H522 lung
[7] = tested on: IGROV1 ovarian
[8] = tested on: MDA-MB-231 breast
[9] = tested on: CCRF-CEM leukemia
[10] = tested on: TK-10 renal
[11] = tested on: HL-60(TB) leukemia
[12] = tested on: SF-268 CNS
[13] = tested on: RXF 393 renal
[14] = tested on: MDA-MB-435 melanoma
[15] = tested on: SNB-75 CNS
[16] = tested on: DU-145 prostate
[17] = tested on: HCT-116 colon
[18] = tested on: SN12C renal
[19] = tested on: K-562 leukemia
[20] = tested on: MALME-3M melanoma
[21] = tested on: SF-295 CNS
[22] = tested on: MCF7 breast
[23] = tested on: 786-0 renal
[24] = tested on: HCC-2998 colon
[25] = tested on: CAKI-1 renal
[26] = tested on: SF-539 CNS
[27] = tested on: NCI-H23 lung
[28] = tested on: ACHN renal
[29] = tested on: LOX IMVI melanoma
[30] = tested on: HT29 colon
[31] = tested on: SK-OV-3 ovarian
[32] = tested on: COLO 205 colon
[33] = tested on: OVCAR-3 ovarian
[34] = tested on: A549 NSCLC
[35] = tested on: OVCAR-8 ovarian
[36] = tested on: KM12 colon
[37] = tested on: HCT-15 colon
[38] = tested on: UACC-62 melanoma
[39] = tested on: HS 578T breast
[40] = tested on: UO-31 renal
[41] = tested on: HOP-62 NSCLC
[42] = tested on: M14 melanoma
[43] = tested on: RPMI-8226 leukemia
[44] = tested on: U251 glioblastoma
[45] = tested on: NCI/ADR-RES ovarian
[46] = tested on: NCI-H226 lung
[47] = tested on: OVCAR-4 ovarian
[48] = tested on: BT-549 breast
[49] = tested on: MDA-MB-468 breast
[50] = tested on: SK-MEL-28 melanoma
[51] = tested on: NCI-H322M lung
[52] = tested on: A498 renal
[53] = tested on: EKVX NSCLC
[54] = tested on: NCI-H460 NSCLC
[55] = tested on: SNB-19 CNS
[56] = tested on: UACC-257 melanoma
[57] = tested on: PC-3 prostate
[58] = tested on: SR leukemia
[59] = tested on: OVCAR-5 ovarian

COc1cc2nc(N3CCCN(C)CC3)nc(NC3CCN(Cc4ccccc4)CC3)c2cc1OC gave a GI50 [1] of 1780 nM, a TGI [1] of 3200 nM and a GI50 [2] of 538 nM. It also gave a TGI [2] of 1840 nM, a GI50 [3] of 1380 nM and a TGI [3] of 2720 nM. For the same compound, the GI50 [4] was 405 nM, the TGI [4] was 1450 nM and the GI50 [5] was 968 nM. It also gave a TGI [5] of 2160 nM, a GI50 [6] of 1430 nM and a TGI [6] of 2750 nM. It also gave a GI50 [7] of 1850 nM, a TGI [7] of 3830 nM and a GI50 [8] of 725 nM. For the same compound, the TGI [8] was 2110 nM, the GI50 [9] was 227 nM and the TGI [9] was 622 nM. The GI50 [10] was 1180 nM, the TGI [10] was 2500 nM and the GI50 [11] was 233 nM. The TGI [11] was 541 nM, the GI50 [12] was 943 nM and the TGI [12] was 2140 nM. For the same compound, the GI50 [13] was 572 nM, the TGI [13] was 1890 nM and the GI50 [14] was 1570 nM. It also gave a TGI [14] of 2930 nM, a GI50 [15] of 1660 nM and a TGI [15] of 3040 nM. For the same compound, the GI50 [16] was 1380 nM, the TGI [16] was 2730 nM and the GI50 [17] was 351 nM. The TGI [17] was 1020 nM, the GI50 [18] was 1720 nM and the TGI [18] was 3220 nM. For the same compound, the GI50 [19] was 163 nM, the TGI [19] was 366 nM and the GI50 [20] was 1150 nM. It also gave a TGI [20] of 2370 nM, a GI50 [21] of 1550 nM and a TGI [21] of 2890 nM. For the same compound, the GI50 [22] was 694 nM, the TGI [22] was 2020 nM and the GI50 [23] was 1300 nM. The TGI [23] was 2590 nM, the GI50 [24] was 867 nM and the TGI [24] was 2130 nM. It also gave a GI50 [25] of 578 nM, a TGI [25] of 1830 nM and a GI50 [26] of 339 nM. For the same compound, the TGI [26] was 916 nM, the GI50 [27] was 1560 nM and the TGI [27] was 3160 nM. For the same compound, the GI50 [28] was 1650 nM, the TGI [28] was 3040 nM and the GI50 [29] was 1540 nM. The TGI [29] was 2890 nM, the GI50 [30] was 395 nM and the TGI [30] was 1320 nM. For the same compound, the GI50 [31] was 1350 nM, the TGI [31] was 2660 nM and the GI50 [32] was 1340 nM. The TGI [32] was 2640 nM, the GI50 [33] was 540 nM and the TGI [33] was 1710 nM. The GI50 [34] was 1660 nM, the TGI [34] was 3080 nM and the GI50 [35] was 1030 nM. It also gave a TGI [35] of 2240 nM, a GI50 [36] of 434 nM and a TGI [36] of 1670 nM. The GI50 [37] was 611 nM, the TGI [37] was 1900 nM and the GI50 [38] was 1280 nM. For the same compound, the TGI [38] was 2570 nM, the GI50 [39] was 1480 nM and the TGI [39] was 2810 nM. The GI50 [40] was 1780 nM, the TGI [40] was 3180 nM and the GI50 [41] was 1760 nM. For the same compound, the TGI [41] was 3170 nM, the GI50 [42] was 600 nM and the TGI [42] was 1850 nM. The GI50 [43] was 449 nM, the TGI [43] was 1540 nM and the GI50 [44] was 1150 nM. For the same compound, the TGI [44] was 2390 nM, the GI50 [45] was 4780 nM and the TGI [45] was 15900 nM. The GI50 [46] was 1590 nM, the TGI [46] was 3180 nM and the GI50 [47] was 1010 nM. For the same compound, the TGI [47] was 2190 nM, the GI50 [48] was 1090 nM and the TGI [48] was 2300 nM. It also gave a GI50 [49] of 1200 nM, a TGI [49] of 2450 nM and a GI50 [50] of 1640 nM. The TGI [50] was 3020 nM, the GI50 [51] was 1440 nM and the TGI [51] was 2840 nM. It also gave a GI50 [52] of 625 nM, a TGI [52] of 1830 nM and a GI50 [53] of 1650 nM. For the same compound, the TGI [53] was 3620 nM, the GI50 [54] was 456 nM and the TGI [54] was 1500 nM. It also gave a GI50 [55] of 1510 nM, a TGI [55] of 3340 nM and a GI50 [56] of 178 nM. For the same compound, the TGI [56] was 319 nM, the GI50 [57] was 1140 nM and the TGI [57] was 2550 nM.
Cc1c(CN2CCN(C(=O)[C@H](C)O)CC2)sc2c(N3CCOCC3)nc(-c3cnc(N)nc3)nc12 gave a GI50 [1] of 25.9 nM, a TGI [1] of 110 nM and a GI50 [2] of 97.5 nM. It also gave a TGI [2] of 282 nM, a GI50 [3] of 84.9 nM and a TGI [3] of 446 nM. For the same compound, the GI50 [4] was 594 nM, the TGI [4] was greater than 100000 nM and the GI50 [5] was 119 nM. It also gave a TGI [5] of 386 nM, a GI50 [6] of 208 nM and a TGI [6] of 974 nM. It also gave a GI50 [7] of 41.6 nM, a TGI [7] of 192 nM and a GI50 [8] of 290 nM. The TGI [8] was greater than 100000 nM, the GI50 [9] was 361 nM and the TGI [9] was 1920 nM. It also gave a GI50 [10] of 223 nM, a TGI [10] of 1380 nM and a GI50 [11] of 121 nM. For the same compound, the TGI [11] was 577 nM, the GI50 [12] was 386 nM and the TGI [12] was 16600 nM. It also gave a GI50 [13] of 352 nM, a TGI [13] of 2330 nM and a GI50 [14] of 230 nM. For the same compound, the TGI [14] was 1530 nM, the GI50 [15] was 143 nM and the TGI [15] was 775 nM. For the same compound, the GI50 [16] was 272 nM, the TGI [16] was 4100 nM and the GI50 [18] was 148 nM. The TGI [18] was 694 nM, the GI50 [19] was 943 nM and the TGI [19] was greater than 100000 nM. For the same compound, the GI50 [20] was 51 nM, the TGI [20] was 286 nM and the GI50 [21] was 148 nM. It also gave a TGI [21] of 695 nM, a GI50 [22] of 48.5 nM and a TGI [22] greater than 100000 nM. For the same compound, the GI50 [23] was 350 nM, the TGI [23] was 2860 nM and the GI50 [24] was 404 nM. The TGI [24] was 14700 nM, the GI50 [25] was 197 nM and the TGI [25] was 2820 nM. The GI50 [26] was 300 nM, the TGI [26] was 3070 nM and the GI50 [27] was 179 nM. The TGI [27] was 5800 nM, the GI50 [28] was 193 nM and the TGI [28] was 1150 nM. It also gave a GI50 [29] of 239 nM, a TGI [29] of 1130 nM and a GI50 [30] of 246 nM. The TGI [30] was greater than 100000 nM, the GI50 [31] was 133 nM and the TGI [31] was 448 nM. For the same compound, the GI50 [32] was 208 nM, the TGI [32] was 1370 nM and the GI50 [33] was 211 nM. For the same compound, the TGI [33] was 1740 nM, the GI50 [34] was 261 nM and the TGI [34] was 2600 nM. For the same compound, the GI50 [35] was 333 nM, the TGI [35] was greater than 100000 nM and the GI50 [36] was 354 nM. It also gave a TGI [36] of 6970 nM, a GI50 [37] of 198 nM and a TGI [37] greater than 100000 nM. It also gave a GI50 [38] of 211 nM, a TGI [38] of 1200 nM and a GI50 [39] of 139 nM. It also gave a TGI [39] of 419 nM, a GI50 [40] of 295 nM and a TGI [40] greater than 100000 nM. For the same compound, the GI50 [58] was 176 nM, the TGI [58] was 609 nM and the GI50 [41] was 292 nM. For the same compound, the TGI [41] was 2920 nM, the GI50 [42] was 228 nM and the TGI [42] was 3710 nM. For the same compound, the GI50 [43] was 54.4 nM, the TGI [43] was 200 nM and the GI50 [44] was 1060 nM. The TGI [44] was greater than 100000 nM, the GI50 [45] was 651 nM and the TGI [45] was greater than 100000 nM. For the same compound, the GI50 [46] was 158 nM, the TGI [46] was 784 nM and the GI50 [47] was 128 nM. For the same compound, the TGI [47] was 726 nM, the GI50 [48] was 197 nM and the TGI [48] was 922 nM. It also gave a GI50 [49] of 97.6 nM, a TGI [49] of 352 nM and a GI50 [50] of 154 nM. For the same compound, the TGI [50] was 719 nM, the GI50 [51] was 244 nM and the TGI [51] was 6600 nM. It also gave a GI50 [52] of 88.2 nM, a TGI [52] of 473 nM and a GI50 [53] of 173 nM. It also gave a TGI [53] of 1010 nM, a GI50 [54] of 78.6 nM and a TGI [54] greater than 100000 nM. The GI50 [59] was 137 nM, the TGI [59] was 823 nM and the GI50 [55] was 2490 nM. For the same compound, the TGI [55] was greater than 100000 nM, the GI50 [56] was 185 nM and the TGI [56] was 884 nM. It also gave a GI50 [57] of 149 nM and a TGI [57] of 2430 nM.
